Laboratory results reported in patent US7166607B2, “Substituted indoles” (AstraZeneca AB, priority 2002, dated 2007).

How the values were obtained:
rhCRTh2 = biological target: T1, rhCRTh2 (Homo sapiens, UniProt Q9Y5Y4); assay: Ligand Binding Assay ([3H]PGD2 SPA, HEK cell membranes); settings: [3H]PGD2 displacement, membranes of HEK cells expressing rhCRTh2/Gα16, SPA beads, 2 hours room temperature
T1 construct: expressed in transfected cells; host or cells: HEK cells (stably transfected, geneticin selection; expression induced with sodium butyrate); membrane preparation
T1 sequence (Q9Y5Y4 1-395): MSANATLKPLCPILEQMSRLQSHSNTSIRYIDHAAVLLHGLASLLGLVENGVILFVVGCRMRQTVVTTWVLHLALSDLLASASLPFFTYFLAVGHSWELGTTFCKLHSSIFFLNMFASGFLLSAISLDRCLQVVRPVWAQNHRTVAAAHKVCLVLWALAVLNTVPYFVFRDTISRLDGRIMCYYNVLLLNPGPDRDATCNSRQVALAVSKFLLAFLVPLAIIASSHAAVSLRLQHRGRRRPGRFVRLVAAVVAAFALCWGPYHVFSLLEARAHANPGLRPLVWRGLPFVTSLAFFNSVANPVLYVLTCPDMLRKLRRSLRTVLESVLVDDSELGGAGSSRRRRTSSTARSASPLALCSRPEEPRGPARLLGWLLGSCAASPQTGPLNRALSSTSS
Protocol: [^3H]PGD2 was purchased from Perkin Elmer Life Sciences with a specific activity of 100–210 Ci/mmol. All other chemicals were of analytical grade.
HEK cells expressing rhCRTh2/Gα16 were routinely maintained in DMEM containing 10% Foetal Bovine Serum (HyClone), 1 mg/ml geneticin, 2 mM L-glutamine and 1% non-essential amino acids. For the preparation of membranes, the adherent transfected HEK cells were grown to confluence in two layer tissue culture factories (Fisher, catalogue number TKT-170-070E). Maximal levels of receptor expression were induced by addition of […] sodium butyrate for the last 18 hours of culture. The adherent cells were washed once with phosphate buffered saline (PBS, 50 ml per cell factory) and detached by the addition of 50 ml per cell factory of ice-cold membrane homogenisation buffer [20 mM HEPES (pH 7.4), 0.1 mM dithiothreitol, 1 mM EDTA, 0.1 mM phenyl methyl sulphonyl fluoride and 100 μg/ml bacitracin]. […] The final pellet was re-suspended in 4 ml of membrane homogenisation buffer per cell factory used and the protein content determined. […]
All assays were performed in Corning clear bottomed, white 96-well NBS plates (Fisher). […] (The optimum coating concentrations were determined for each batch of membranes) The beads were pelleted by centrifugation (800×g for 7 minutes at 4° C.), washed once with assay buffer (50 mM HEPES pH 7.4 containing 5 mM magnesium chloride) and finally re-suspended in assay buffer at a bead concentration of 10 mg/ml.
Each assay contained 20 μl of 6.25 nM [^3H]PGD2, 20 μl membrane saturated SPA beads both in assay buffer and 10 μl of compound solution or 13,14-dihydro-15-keto prostaglandin D2 (DK-PGD2, for determination of non-specific binding, Cayman chemical company). […] The assay plate was incubated at room temperature for 2 hours and counted on a Wallac Microbeta liquid scintillation counter (1 minute per well).

Row | IC50 (rhCRTh2) [nM] | melting point [°C] | Structure (SMILES)
1 | 4.47 |  | COc1cccc(Sc2c(C)n(CC(=O)O)c3ccc(C)cc23)c1 [Example 29, 3-[(3-methoxyphenyl)thio]-2,5-dimethyl-1H-indole-1-acetic acid]
2 | 891 | 173 | Cc1c(Sc2ccc(Cl)cc2)c2c(N3CCN(C(=O)OC(C)(C)C)CC3)cccc2n1CC(=O)O [Example 23, 3-[(4-chlorophenyl)thio]-4-[4-[(1,1-dimethylethoxy)carbonyl]-1-piperazinyl]-2-methyl-1H-indole-1-acetic acid]
3 |  | 221 to 223 | COC(=O)c1ccc2c(c1)c(Sc1ccc(Cl)cc1)c(C)n2CC(=O)O [Example 53, 3-[(4-chlorophenyl)thio]-5-(methoxycarbonyl)-2-methyl-1H-indole-1-acetic acid]
4 | 63.1 |  | Cc1ccc2c(c(Sc3nc(-c4ccccc4)cs3)c(C)n2CC(=O)O)c1S(C)(=O)=O [Example 50, 2,5-dimethyl-4-(methylsulfonyl)-3-[(4-phenyl-2-thiazolyl)thio]-1H-indole-1-acetic acid]
